US9896479B2, “Functionalized naphthalene fluorophores” (Kay M. Brummond, priority 2012, dated 2018)
Where two headings read alike, the source gives them in different places.

Assays:
[1] = Absorption spectra (absorption maxima) of dyes in organic solvents; type: physicochemical
Description: (§1) All commercially available compounds were purchased from Aldrich Chemical Co., GFS Chemicals, Strem Chemicals, Acros Organics, Alfa Aesar, and Advanced Chemtech and used as received, except for p-toluenesulfonyl hydrazide, which was recrystallized from methanol. Amines were purchased from Aldrich Chemical Co. as purified by redistillation and used as received. Tetrahydrofuran (THF), diethyl ether (Et2O), and dichloromethane (CH2Cl2) were purified by passing through alumina using the Sol-Tek ST-002 solvent purification system. Acetonitrile (MeCN) and toluene were freshly distilled from CaH2 prior to use. Benzene was freshly distilled from sodium/benzophenone prior to use Anhydrous N,N-dimethylformamide (DMF), 1,2-dichloroethane (DCE), and 1,4-dioxane were purchased and used as received from Aldrich Chemical Co. Purification of the compounds by flash column chromatography was performed using silica gel (32-63 μm particle size, 60 Å pore size) purchased from Silicycle, or by using a Biotage Horizon flash purification system with either Biotage SNAP KP-SIL silica cartridges, or Teledyne ISCO RediSep Rf normal phase disposable flash columns (40-60 micron). TLC analyses were performed on EMD Chemicals Silica Gel 60 F254 glass plates (250 μm thickness). ^1H NMR and ^13C NMR spectra were recorded on Bruker Avance 300 MHz, 500 MHz, or 600 MHz spectrometers. Spectra were referenced to residual chloroform (7.27 ppm, ^1H, 77.0 ppm, ^13C) or 1,2-dichlorobenzene (6.93 ppm, ^1H, 127.19 ppm, ^13C). Chemical shifts are reported in ppm, multiplicities are indicated by s (singlet), d (doublet), t (triplet), q (quartet), p (pentet), and m (multiplet). Coupling constants, J, are reported in hertz (Hz). All NMR spectra were obtained at room temperature unless otherwise specified. IR spectra were obtained using a Nicolet Avatar E.S.P. 360 FT-IR. EI mass spectroscopy was performed on a Waters Micromass GCT high resolution mass spectrometer. ES mass spectroscopy was performed on a Waters Q-TOF Ultima API, Micromass UK Limited high resolution mass spectrometer. GC mass spectrometry was performed on a Shimadzu GCMS-17A/QP5050A spectrometer. All microwave-mediated reactions were carried out using a Biotage Initiator™ Exp microwave synthesizer. The microwave parameters were set to variable power, constant temperature, with the fixed hold time set to on. The microwave reactions were carried out in 0.2-0.5 mL, 0.5-2 mL, 2-5 mL, or 10-20 mL Biotage microwave vials. […] Absorption and fluorescence spectra were recorded on Lambda 9 spectrophotometer (Perkin Elmer) and FluoroMax-3 spectrofluorometer (Jobin Yvon, Horiba), respectively. Fluorescence quantum yields were determined by taking Prodan in DMSO (quantum yield, QY=91%) as a reference. The quantum yield values were corrected for the solvent refractive index. For spectroscopic measurements, 10^−5 M solutions of dyes in 10 mm quartz-cuvettes were used (excitation wavelength was 334 nm; slits open to 2 nm).

[2] = Fluorescence quantum yield vs Prodan in DMSO as reference; type: physicochemical; conditions: for QY (fluorescence quantum yield vs Prodan in DMSO (91%)): excitation 334 nm, 10^-5 M
Description: as §1

[3] = Fluorescence emission spectra (emission maxima, Stokes and bathochromic shifts); type: physicochemical
Description: as §1

[4] = cited from earlier work
[5] = Prodan in DMSO taken as reference; cited from earlier work

CC(=O)c1c2c(cc3c(N(C)C)cccc13)CCC2 [Compound 12, 1-(8-(dimethylamino)-2,3-dihydro-1H-cyclopenta[b]naphthalen-4-yl)ethanone]
λabs (maximum absorption) ([1]; 1,4-Dioxane): 319 nm
λabs (maximum absorption) ([1]; Acetonitrile): 316 nm
λabs (maximum absorption) ([1]; CH2Cl2): 334 nm
λabs (maximum absorption) ([1]; CHCl3): 334 nm
λabs (maximum absorption) ([1]; Cyclohexane): 314 nm
λabs (maximum absorption) ([1]; DMSO): 334 nm
λabs (maximum absorption) ([1]; EtOH): 334 nm
λabs (maximum absorption) ([1]; THF): 330 nm
λabs (maximum absorption) ([1]; Toluene): 322 nm
absorption maximum ([1]; in methylene chloride): 332 nm
QY (fluorescence quantum yield vs Prodan in DMSO (91%)) ([2]; 1,4-Dioxane): 44%
QY (fluorescence quantum yield vs Prodan in DMSO (91%)) ([2]; Acetonitrile): 23%
QY (fluorescence quantum yield vs Prodan in DMSO (91%)) ([2]; CH2Cl2): 60%
QY (fluorescence quantum yield vs Prodan in DMSO (91%)) ([2]; CHCl3): 40%
QY (fluorescence quantum yield vs Prodan in DMSO (91%)) ([2]; Cyclohexane): 28%
QY (fluorescence quantum yield vs Prodan in DMSO (91%)) ([2]; DMSO): 48%
QY (fluorescence quantum yield vs Prodan in DMSO (91%)) ([2]; THF): 39%
QY (fluorescence quantum yield vs Prodan in DMSO (91%)) ([2]; Toluene): 47%
λem (maximum emission) ([3]; 1,4-Dioxane): 534 nm
λem (maximum emission) ([3]; Acetonitrile): 590 nm
λem (maximum emission) ([3]; CH2Cl2): 562 nm
λem (maximum emission) ([3]; CHCl3): 562 nm
λem (maximum emission) ([3]; Cyclohexane): 480 nm
λem (maximum emission) ([3]; DMSO): 598 nm
λem (maximum emission) ([3]; EtOH): 634 nm
λem (maximum emission) ([3]; THF): 543 nm
λem (maximum emission) ([3]; Toluene): 520 nm
emission maximum ([3]; in methylene chloride): 562 nm

CCC(=O)c1ccc2cc(N(C)C)ccc2c1 [Prodan, reference compound]
Bathochromic shift ([4]; cyclohexane to water (background)): 124 nm
fluorescent emission ([4]; in cyclohexane (background)): 410 nm
fluorescent emission ([4]; in water (background)): 534 nm
λabs (maximum absorption) ([1]; 1,4-Dioxane): 346 nm
λabs (maximum absorption) ([1]; Acetonitrile): 350 nm
λabs (maximum absorption) ([1]; CH2Cl2): 355 nm
λabs (maximum absorption) ([1]; DMSO): 357 nm
λabs (maximum absorption) ([1]; EtOH): 362 nm
λabs (maximum absorption) ([1]; THF): 348 nm
λabs (maximum absorption) ([1]; Toluene): 346 nm
λabs (maximum absorption) ([1]; n-Hexane): 340 nm
QY (fluorescence quantum yield vs Prodan in DMSO (91%)) ([2]; 1,4-Dioxane): 75%
QY (fluorescence quantum yield vs Prodan in DMSO (91%)) ([2]; Acetonitrile): 80%
QY (fluorescence quantum yield vs Prodan in DMSO (91%)) ([2]; CH2Cl2): 98%
QY (fluorescence quantum yield vs Prodan in DMSO (91%)) ([2]; DMSO): 91%
QY (fluorescence quantum yield vs Prodan in DMSO (91%)) ([2]; EtOH): 71%
QY (fluorescence quantum yield vs Prodan in DMSO (91%)) ([2]; THF): 78%
QY (fluorescence quantum yield vs Prodan in DMSO (91%)) ([2]; Toluene): 56%
QY (fluorescence quantum yield) ([2]; n-Hexane): 2.0%
quantum yield, QY (reference value) [5]: 91%
